Data on five compounds can be found in ChEMBL document CHEMBL3046364, “Influence of 1, 3, 5-Triazine Compounds on Ammonia Oxidizing Activity of Cell-Free Extracts from Nitrosomonas europaea” (J Pestic Sci, 2002).

For the experiment, the system named is Nitrosomonas europaea. Nature of the experiment: Inhibition of ammonia oxidation in cell suspensions of Nitrosomonas europaea ATCC 25978 assessed as oxygen consumption. The experiment is classed as functional, organism-based. Conditions: read-out: pI50 (converted).
Consider `CCNc1nc(C)nc(C(Cl)(Cl)Cl)n1`, for which the IC50 was 2 µM. As for `CCCCCCCCCCCCCCNc1nc(C)nc(C(Cl)(Cl)Cl)n1`, the figure is 21.9 µM.

As for `Nc1nc(C(Cl)(Cl)Cl)nc(C(Br)(Br)Br)n1`, the IC50 was 0.0759 µM. For `Cc1nc(N)nc(C(Cl)(Cl)Cl)n1`, the IC50 is 4.9 µM. For `CNc1nc(C)nc(C(Cl)(Cl)Cl)n1`, the IC50 is 3.55 µM.
